System: 8226-s, 8226-dox40 and 8226-MR20
Assay: PARP cleavage western in drug sensitive and resistant 8226 lines
Format: cell-based, human
Settings: 24 hours; 10 μM cisplatin or 10, 20 or 40 μM HLM006474
Procedure: Cells were collected 24 hours post drug exposure and extracts subjected to western blotting using antibodies to the indicated proteins. Cleavage of PARP indicates apoptosis.

Compound	PARP cleavage (apoptosis) in sensitive versus resistant lines
N.N.[Cl][Pt][Cl] [cisplatin, reference compound]	Minimal PARP cleavage

System: E2F4-deficient MEFs
Assay: not given
Settings: earlier work of the inventors (Ma et al., 2004); cited from earlier work

Compound	sensitivity of E2F4-deficient MEFs to other drugs
CC(C)(C)c1cnc(CSc2cnc(NC(=O)C3CCNCC3)s2)o1 [SNS-032]	more sensitive
COc1cc([C@@H]2c3cc4c(cc3[C@@H](O[C@@H]3O[C@@H]5CO[C@@H](C)O[C@H]5[C@H](O)[C@H]3O)[C@H]3COC(=O)[C@H]23)OCO4)cc(OC)c1O [VP16, etoposide]	more sensitive
N.N.[Cl][Pt][Cl] [cisplatin, reference compound]	more sensitive
CN1CC[C@H](c2c(O)cc(O)c3c(=O)cc(-c4ccccc4Cl)oc23)[C@H](O)C1 [flavopiridol]	more sensitive
CC[C@H](CO)Nc1nc(NCc2ccccc2)c2ncn(C(C)C)c2n1 [roscovitine]	more sensitive
